Measured values reported in US10604521B2, “Crystalline forms of PLX3397 hydrochloride, processes for preparation and use thereof” (Crystal Pharmaceutical (Suzhou) Co., Ltd., priority 2016, dated 2020).
Where a name gives a salt, the structure may show the parent alone. Blank lines part the entries; values can stand above or below the compound they belong to.

Assays:
[1] = Particle size distribution (PSD), laser particle size analyzer, wet process; type: physicochemical; details: volume distribution, dispersion medium Isopar G
Experimental: The particle size distribution test in the present disclosure is acquired by the S3500 laser particle size analyzer of Microtrac. Microtrac S3500 is equipped with the SDC (Sample Delivery Controller). The test is carried out by wet process, and the dispersion medium is Isopar G The parameters are as follow: [table] Mv: Average particle size calculated by volume. D10: particle size which accounts for 10% of the particle size distribution (volume distribution). D50: particle size which accounts for 50% of the particle size distribution (volume distribution), also known as the median particle size. D90: particle size which accounts for 90% of the particle size distribution (volume distribution). PSD was performed on Form CS3 of the present disclosure and Form C of WO2016179415.

[2] = Dynamic solubility (saturated solutions, HPLC); type: physicochemical; details: monohydrochloride
Experimental: High Performance Liquid Chromatography (HPLC) data in the present disclosure are collected from Agilent 1100 with diode array detector (DAD). The HPLC method parameters for solubility test in the present disclosure are as follows:
4. Injection Volume: 4 μL
5. Detection wavelength: 230 nm
6. Column Temperature: 40° C.
7. Diluent: 50% Acetonitrile
Form CS2 of the present disclosure and Form C of WO2016179415 were suspended into SGF (Simulated gastric fluids) and water to get saturated solutions. After equilibrated for 1 h and 4 h, concentrations of the saturated solutions were measured by HPLC.

[3] = Mechanical stability: grinding in agate mortar, XRPD; type: physicochemical; details: grinding for 5 minutes in agate mortar
Experimental: A certain amount of Form C of WO2016179415, Form CS2 and Form CS3 samples were placed in an agate mortar. After grinding for 5 minutes, the obtained solid was collected for XRPD characterization. The results of Form C of WO2016179415, Form CS2 and Form CS3 were substantially as depicted in FIG. 16, FIG. 17 and FIG. 18, respectively.

[4] = stored at 80° C. for 7 days; cited from earlier work
[5] = Stability assessment of Form CS3 stored at 25° C./60% RH; type: physicochemical
Experimental: Form CS3 of the present disclosure was stored at 25° C./60% RH for 90 days. Samples were taken after 15, 30 and 90 days to investigate the stability of From CS3. […] XRPD patterns overlay before and after storage for 90 days was substantially as depicted in FIG. 15.

[6] = Hygroscopicity test by dynamic vapor sorption (DVS), XRPD before and after; type: physicochemical; details: 40%-95%-0-95% RH cycle at 25° C.
Experimental: Dynamic Vapor Sorption (DVS) is measured via a SMS (Surface Measurement Systems Ltd.) intrinsic DVS. Typical Parameters for DVS test are as follows: Temperature: 25° C. Gas and flow rate: N2, 200 mL/min dm/dt: 0.002%/min RH range: 0% RH to 95% RH 6.2 mg of monohydrochloride Form CS2 was placed into dynamic vapor sorption (DVS) instrument, and then went through a 40%-95%-0-95% RH cycle at 25° C. The DVS plot was substantially as depicted in FIG. 10. The XRPD patterns overlay of solids before and after DVS test was substantially as depicted in FIG. 11 (Top: XRPD pattern before DVS; Bottom: XRPD pattern after DVS). […] 7.9 mg of dihydrochloride Form CS3 was placed into dynamic vapor sorption (DVS) instrument, and then went through a 40%-95%-0-95% RH cycle at 25° C. The DVS plot was substantially as depicted in FIG. 12. The XRPD patterns overlay of solids before and after DVS test was substantially as depicted in FIG. 13 (Top: XRPD pattern before DVS; Bottom: XRPD pattern after DVS).

[7] = Stability assessment of Form CS2 stored at 5° C. (XRPD and HPLC); type: physicochemical; details: for Purity: HPLC; for Solid Form: XRPD
Experimental: Form CS2 of the present disclosure was stored at 5° C. Samples were taken after 15 and 30 days to test XRPD and HPLC. The stability of From CS2 was mainly investigated. […] XRPD patterns overlay before and after storage for 30 days was substantially as depicted in FIG. 14.

D(10) ([1]; monohydrochloride): 2.35 μm
D(50) ([1]; monohydrochloride): 18.26 μm
D(90) ([1]; monohydrochloride): 118.8 μm
Solubility ([2]; H2O, 1 h): 80 µg/mL
Solubility ([2]; H2O, 4 h): 600 µg/mL
Solubility ([2]; SGF, 1 h): 490 µg/mL
Solubility ([2]; SGF, 4 h): 560 µg/mL
Crystalline form after grinding ([3]; listed as Form C of WO2016179415, monohydrochloride): substantially changed to amorphous
SMILES: FC(F)(F)c1ccc(CNc2ccc(Cc3c[nH]c4ncc(Cl)cc34)cn2)cn1 [Form C, PLX3397 monohydrochloride, reference compound]

SMILES: FC(F)(F)c1ccc(CNc2ccc(Cc3c[nH]c4ncc(Cl)cc34)cn2)cn1 [Form A, PLX3397 monohydrochloride]
Form change on storage [4]: converted to Form C

D(10) ([1]; dihydrochloride): 6.55 μm
D(50) ([1]; dihydrochloride): 47.85 μm
D(90) ([1]; dihydrochloride): 194.3 μm
Purity ([5]; 15 days): 99.60%
Solid Form ([5]; 15 days): No form change
Purity ([5]; 30 days): 99.64%
Solid Form ([5]; 30 days): No form change
Purity ([5]; 90 days): 99.50%
Solid Form ([5]; 90 days): No form change
Purity ([5]; Initial): 99.51%
Solid Form ([5]; Initial): No form change
Form change after DVS test [6]: No form change
SMILES: FC(F)(F)c1ccc(CNc2ccc(Cc3c[nH]c4ncc(Cl)cc34)cn2)cn1 [Form CS3, PLX3397 dihydrochloride]
Crystalline form after grinding ([3]; dihydrochloride): crystallinity of Form CS2 and Form CS3 decreased but the crystalline forms remained unchanged

Solubility ([2]; H2O, 1 h): 2170 µg/mL
Solubility ([2]; H2O, 4 h): 1290 µg/mL
Solubility ([2]; SGF, 1 h): 1130 µg/mL
Solubility ([2]; SGF, 4 h): 1280 µg/mL
Purity ([7]; 15 days): 99.45%
Solid Form ([7]; 15 days): No form change
Purity ([7]; 30 days): 99.44%
Solid Form ([7]; 30 days): No form change
Purity ([7]; Initial): 99.53%
Solid Form ([7]; Initial): No form change
Form change after DVS test [6]: No form change
SMILES: FC(F)(F)c1ccc(CNc2ccc(Cc3c[nH]c4ncc(Cl)cc34)cn2)cn1 [Form CS2, PLX3397 monohydrochloride]
Crystalline form after grinding ([3]; monohydrochloride): crystallinity of Form CS2 and Form CS3 decreased but the crystalline forms remained unchanged
